Reference: ChEMBL document CHEMBL4828769, “Discovery of AS-0141, a Potent and Selective Inhibitor of CDC7 Kinase for the Treatment of Solid Cancers” (J Med Chem, 2021)

How the values were obtained:
[1] = Inhibition of human CDC7/ASK using FITC-labelled MCM2 substrate in presence of 5 uM of ATP
[2] = Inhibition of human CDC7/ASK using FITC-labelled MCM2 substrate in presence of 1 mM of ATP
[3] = Inhibition of human CDC7/ASK using FITC-labelled MCM2 substrate preincubated for 30 mins followed by substrate addition and measured after 5 hrs in presence of 1 mM of ATP
[4] = Metabolic stability in human liver microsomes assessed as parent compound remaining after 30 mins; assay type: ADME, Microsome; conditions: microsomes, 0.5 h
[5] = Metabolic stability in mouse liver microsomes assessed as parent compound remaining after 30 mins; assay type: ADME, Microsome; conditions: microsomes, 0.5 h
[6] = molecular target: Cell division cycle 7-related protein kinase (Homo sapiens, UniProt O00311); assay: Inhibition of CDC7 in human COLO205 cells assessed as reduction in MCM2 phosphorylation at S53 residue at 0.1 uM incubated for 48 hrs by Western blot analysis relative to control; assay type: cell-based; conditions: COLO 205
Sequence of Cell division cycle 7-related protein kinase (O00311 whole entry, looked up): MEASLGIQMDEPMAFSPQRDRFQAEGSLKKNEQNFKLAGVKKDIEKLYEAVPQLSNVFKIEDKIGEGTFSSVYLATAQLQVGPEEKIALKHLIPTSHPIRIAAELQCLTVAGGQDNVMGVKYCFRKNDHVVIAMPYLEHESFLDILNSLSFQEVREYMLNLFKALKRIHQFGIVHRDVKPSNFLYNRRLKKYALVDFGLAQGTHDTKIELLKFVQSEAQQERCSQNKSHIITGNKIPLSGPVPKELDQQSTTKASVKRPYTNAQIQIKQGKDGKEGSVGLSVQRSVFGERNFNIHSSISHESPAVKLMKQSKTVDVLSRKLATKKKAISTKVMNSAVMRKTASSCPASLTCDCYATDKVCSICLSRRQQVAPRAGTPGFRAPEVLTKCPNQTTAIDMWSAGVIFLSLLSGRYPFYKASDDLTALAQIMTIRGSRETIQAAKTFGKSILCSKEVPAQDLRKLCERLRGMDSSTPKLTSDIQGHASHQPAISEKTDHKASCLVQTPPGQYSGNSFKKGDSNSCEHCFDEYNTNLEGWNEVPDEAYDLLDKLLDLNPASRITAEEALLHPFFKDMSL

COLO 205 = assay: Induction of cell cycle arrest in human COLO205 cells assessed as accumulation of cells at sub-G1 phase at 1 uM incubated for 48 hrs by propidium iodide staining based flow cytometry analysis; assay type: functional

SMILES | IC50 [1] [nM] | IC50 [2] [nM] | IC50 [3] [nM] | Stability [4] | Stability [5] | inhibition [6] [%] | Activity (COLO 205) [%]
CCOC(=O)C1=C(N2CCCCCC2)O/C(=C\c2c[nH]c3ncccc23)C1=O | 5.6 | 394 | 3.9 | Unstable | Unstable | – | –
CCOC(=O)C1=C(N2CCCCC2)O/C(=C\c2c[nH]c3ncccc23)C1=O | 16 | 856 | – | – | – | – | –
CCOC(=O)C1=C(NN2CCN(CCO)CC2)O/C(=C\c2c[nH]c3ncccc23)C1=O | 10 | 543 | 1.3 | – | – | 18 | 0
CCOC(=O)C1=C(NN2CCN(C)CC2)O/C(=C\c2c[nH]c3ncccc23)C1=O | 12 | 1070 | 4.5 | – | – | 63 | 15.9
CCOC(=O)C1=C(N2CCOCC2)O/C(=C\c2c[nH]c3ncccc23)C1=O | 35 | 2680 | – | – | – | – | –
CCOC(=O)C1=C(NN2CCCCCC2)O/C(=C\c2c[nH]c3ncccc23)C1=O | 5 | 451 | 0.9 | – | – | 100 | 23.2
CCOC(=O)C1=C(NC2CCN(C)CC2)O/C(=C\c2c[nH]c3ncccc23)C1=O | 93 | – | – | – | – | – | –
CCOC(=O)C1=C(NN2CCCC2)O/C(=C\c2c[nH]c3ncccc23)C1=O | 6.9 | 694 | 1.1 | – | – | 100 | 17.4
CCOC(=O)C1=C(NCCN(C)C)O/C(=C\c2c[nH]c3ncccc23)C1=O | 538 | – | – | – | – | – | –
CCOC(=O)C1=C(NC(C)C)O/C(=C\c2c[nH]c3ncccc23)C1=O | 21 | – | – | – | – | – | –
CCOC(=O)C1=C(NC2CCCC2)O/C(=C\c2c[nH]c3ncccc23)C1=O | 13 | 1470 | – | – | – | – | –

Continued by falling IC50 [1], values first:

IC50 [1] [nM] | IC50 [2] [nM] | IC50 [3] [nM] | Stability [4] | Stability [5] | inhibition [6] [%] | SMILES | Activity (COLO 205) [%]
133 | > 10000 | > 10000 | – | – | – | CCOC(=O)C1=C(N2CCCN(C)CC2)O/C(=C\c2c[nH]c3ncccc23)C1=O | –
84 | – | > 10000 | – | – | – | CCOC(=O)C1=C(NCCOC)O/C(=C\c2c[nH]c3ncccc23)C1=O | –
72 | 6010 | – | – | – | – | CCOC(=O)C1=C(N2CCN(CCO)CC2)O/C(=C\c2c[nH]c3ncccc23)C1=O | –
32 | – | – | – | – | – | CCNC1=C(C(=O)OCC)C(=O)/C(=C/c2c[nH]c3ncccc23)O1 | –
15 | 1340 | 10 | – | – | – | CCOC(=O)C1=C(N2CCC(CO)CC2)O/C(=C\c2c[nH]c3ncccc23)C1=O | –
14 | 1260 | 23 | – | – | – | CCOC(=O)C1=C(N2CCC(O)CC2)O/C(=C\c2c[nH]c3ncccc23)C1=O | –
9.5 | 954 | 23 | – | – | – | CCOC(=O)C1=C(N(C)C2CCCCC2)O/C(=C\c2c[nH]c3ncccc23)C1=O | –
7.7 | 667 | 53 | – | – | – | CCOC(=O)C1=C(NC2CCCCC2)O/C(=C\c2c[nH]c3ncccc23)C1=O | –
6.9 | 396 | 2.4 | – | – | 67 | CCOC(=O)C1=C(NN(CC)CC)O/C(=C\c2c[nH]c3ncccc23)C1=O | 14.5
5.9 | 410 | 2 | – | – | 35 | CCOC(=O)C1=C(NN(C)C2CCCCC2)O/C(=C\c2c[nH]c3ncccc23)C1=O | 33
2.9 | 364 | 0.15 | – | – | 70 | CCOC(=O)C1=C(NN2CCOCC2)O/C(=C\c2c[nH]c3ncccc23)C1=O | 46.4
2.4 | 278 | 0.6 | – | – | – | CCOC(=O)C1=C(Nc2ccccc2Cl)O/C(=C\c2c[nH]c3ncccc23)C1=O | –
